Series [1] is described as follows: Cytotoxicity (MTT or CellTiter 96), HeLa. In kind it is cell-based. The settings on record: human, HeLa cells; 24 hour incubation; mean ± SD, 3 replicates. As to the method:
(§1) Following a 24 hour incubation period, cell viability was measured using either the MTT (Roche Applied Science, Indianapolis, IN) or CellTiter 96 proliferation (Promega, WI) assay.

Another series addresses T1, HDAC2 (Homo sapiens, UniProt Q92769).
T1 construct: purchased BPS Bioscience (San Diego, CA)
Put plainly: biochemical. The note with it: recombinant purified enzyme; read-out: 57704 IC50, HDAC2. As to the method: (§2) The lysine deacetylase activity of HDACs 1, 2, 3, and 8 was assessed using the Fluorogenic HDAC Assay (BPS Bioscience, San Diego, CA) according to the manufacturer's instructions. […] All assays were carried out under steady-state conditions and the assay read-out was optimized for linearity both as a function of time and enzyme concentration. The formation of the fluorescent product was measured using a SpectraMax M2 Plate Reader (Molecular Devices, CA). The excitation and emission wavelengths were 360 nm and 450 nm, respectively.

The test system of series [2] is latent HIV-1 in ACH2 cell line. Description: Latent HIV-1 reactivation in ACH2 cells (quantitative PCR of early and late viral RNA transcripts). In kind it is cell-based. The protocol: Three different cell lines of HIV-1 latency were used in this study. These included J89GFP, U1 and ACH-2 cells. The J89GFP cells were a kind gift from Dr. David Levy. The ACH-2 and U1 cells were obtained through the AIDS Research and Reference Reagent Program, Division of AIDS, NIAID, NIH: Dr. Thomas Folks contributor [19]–[21]. Reactivation of latent HIV-1 in the J89GFP cells was measured by quantifying the percentage of EGFP positive cells using a BD FACScan flow cytometer with BD FACSDiva software (BD Biosciences, CA), as described previously. Reactivation of latent HIV-1 in the ACH-2 and U 1 cells was assessed by quantitative analysis of initiated and elongated HIV-1 transcripts, as described previously. All 3 cell lines were maintained in RMPI 1640 medium supplemented with 10% FBS, 0.3 mg/mL L-glutamine, 100 U/mL penicillin, and 100 µg/mL streptomycin at 37°C in humidified air with 5% CO2.
Figure 2 Latent HIV-1 reactivation activity of 57704, alone and in combination with other inducing agents, in the U1 and ACH2 cell line models of virus latency. HIV-1 expression was assessed by quantitative PCR analysis of early and late viral RNA transcripts. Where appropriate, TNFα was used as an activation control. (A) Latent HIV-1 reactivation of activity 57704 in the J89GFP cell line. […] EC50 values were determined in Sigma Plot by nonlinear regression, as described previously. […]

The target in the next series is T2, HDAC3 (Homo sapiens, UniProt O15379).
T2 construct: purchased BPS Bioscience (San Diego, CA)
T2 sequence (O15379 whole entry): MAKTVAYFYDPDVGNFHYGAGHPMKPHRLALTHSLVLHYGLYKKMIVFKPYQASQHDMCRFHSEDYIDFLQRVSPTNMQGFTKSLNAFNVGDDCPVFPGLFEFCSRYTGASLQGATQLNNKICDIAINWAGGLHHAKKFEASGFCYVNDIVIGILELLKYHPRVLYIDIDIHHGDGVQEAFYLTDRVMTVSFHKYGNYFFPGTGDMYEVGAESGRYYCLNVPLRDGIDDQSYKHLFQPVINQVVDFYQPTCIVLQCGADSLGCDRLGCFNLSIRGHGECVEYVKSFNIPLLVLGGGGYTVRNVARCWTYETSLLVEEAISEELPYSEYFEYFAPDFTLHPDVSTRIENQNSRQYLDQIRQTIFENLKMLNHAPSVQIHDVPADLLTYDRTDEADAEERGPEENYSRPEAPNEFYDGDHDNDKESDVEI
T2 sequence (Q9Y618 395-489 partner limits assumed): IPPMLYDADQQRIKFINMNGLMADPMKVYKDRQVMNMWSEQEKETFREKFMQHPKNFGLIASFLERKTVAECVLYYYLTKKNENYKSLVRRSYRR
Description: Fluorogenic HDAC activity assay, HDAC3 complexed with NCOR2. The series is classed as biochemical. The protocol:
as §2

Series [3] is described as follows: Cytotoxicity (MTT or CellTiter 96), 293T. The series is classed as cell-based. The settings on record: human, 293T cells; 24 hour incubation; mean ± SD, 3 replicates. The protocol:
as §1

The test system of series [4] is latent HIV-1 in ACH2 and U1 cell lines. Put plainly: Latent HIV-1 reactivation, range across cell lines of virus latency. The series is classed as cell-based. The settings on record: Human immunodeficiency virus 1, ACH-2, read-out: EC50, reactivation of latent HIV-1 gene expression.

Read-outs that look alike come from different tables or passages of the source.

By CC50 is commonly meant the concentration giving 50% cytotoxicity. A lower CC50 goes with greater toxicity to the cells. The term IC50 denotes the concentration at which inhibition is half-maximal. For orientation: EC50 means the midpoint of the concentration-response curve.

T1 sequence (Q92769 whole entry): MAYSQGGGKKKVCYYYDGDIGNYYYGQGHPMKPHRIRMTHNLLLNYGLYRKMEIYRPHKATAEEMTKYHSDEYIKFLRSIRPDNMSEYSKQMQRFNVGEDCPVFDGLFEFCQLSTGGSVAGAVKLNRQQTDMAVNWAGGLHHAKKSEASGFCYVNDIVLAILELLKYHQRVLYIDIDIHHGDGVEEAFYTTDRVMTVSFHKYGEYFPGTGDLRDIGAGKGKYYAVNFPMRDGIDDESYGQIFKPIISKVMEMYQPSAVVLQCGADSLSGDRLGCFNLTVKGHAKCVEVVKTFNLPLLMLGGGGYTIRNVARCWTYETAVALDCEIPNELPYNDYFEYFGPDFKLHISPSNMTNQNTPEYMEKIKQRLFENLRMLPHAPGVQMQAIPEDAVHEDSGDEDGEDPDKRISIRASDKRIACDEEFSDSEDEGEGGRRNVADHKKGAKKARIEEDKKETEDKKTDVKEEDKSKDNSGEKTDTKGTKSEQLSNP

`COc1cc2c(cc1OC)-c1c(OC)c(OC)cc3ccnc(c13)C2=O` [Compound 57704, 1,2,9,10-tetramethoxy-7H-dibenzo[de,g]quinolin-7-one]: the CC50 at 24 h in series [1] is 293 ± 56.4 µM; in series [3], 106 ± 31.4 µM. In addition, the 50% inhibitory concentration (IC50) on HDAC2 and against HDAC3 was more than 50 µM each time. For the same compound, the half-maximal effective concentration (EC50) was 9 µM in series [2] (Human immunodeficiency virus 1, ACH-2, read-out: EC50, activation of early HIV-1 gene transcript expression); 6.2 µM in series [2] (Human immunodeficiency virus 1, ACH-2, read-out: EC50, activation of late HIV-1 gene transcript expression); 5 to 9 µM in series [4].

Values taken from paper PMC3906007, “Discovery of a Small Molecule Agonist of Phosphatidylinositol 3-Kinase p110α That Reactivates Latent HIV-1” (PLoS ONE, 2014).
